For data set [1], the target named is T1, NAD(P)H dehydrogenase [quinone] 1 (Homo sapiens, UniProt P15559). The data set is described as follows: Inhibition of recombinant human NQO1 in presence of NADPH measured at 2 sec intervals for 5 mins.
Data set [2] in a line: Half life in athymic nude mouse blood. Type of data set: ADME, organism-based.
For data set [3], the target named is T1, NAD(P)H dehydrogenase [quinone] 1. The data set is described as follows: Inactivation of recombinant human NQO1 expressed in Escherichia coli using DCPIP as substrate assessed as rate of reduction of DCPIP by spectrophotometric analysis.
The target is the same in data set [4]. The data set is described as follows: Inhibition of recombinant human NQO1 expressed in Escherichia coli using DCPIP as substrate assessed as rate of reduction of DCPIP in presence of NADH after 5 mins by spectrophotometric analysis.
Data set [5] has the same target. The data set is described as follows: Inactivation of recombinant human NQO1 expressed in Escherichia coli using DCPIP as substrate assessed as partition ratio up to 200 nM by spectrophotometric analysis.
For the next data set, the system named is Homo sapiens. The data set is described as follows: Toxicity in iv dosed human assessed as maximum tolerated dose administered as infusion. Type of data set: organism-based. The following applies: in vivo.
The target in data set [6] is T2, NAD(P)H dehydrogenase [quinone] 1 (Rattus norvegicus, UniProt P05982).
T2 sequence (P05982 whole entry): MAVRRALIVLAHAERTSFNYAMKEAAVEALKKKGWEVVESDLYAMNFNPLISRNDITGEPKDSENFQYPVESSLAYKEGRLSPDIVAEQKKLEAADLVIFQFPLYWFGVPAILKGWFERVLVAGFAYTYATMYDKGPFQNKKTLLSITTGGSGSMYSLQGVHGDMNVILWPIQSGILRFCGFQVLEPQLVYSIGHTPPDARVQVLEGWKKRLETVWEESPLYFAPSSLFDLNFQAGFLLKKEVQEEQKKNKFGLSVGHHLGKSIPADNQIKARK
The data set is described as follows: Competitive binding affinity to rat liver NQO1 in presence of NADPH.

Data on six molecules can be found in ChEMBL document CHEMBL4145564, “NAD(P)H:Quinone Oxidoreductase 1 (NQO1) as a Therapeutic and Diagnostic Target in Cancer” (J Med Chem, 2018).

As a reminder, the IC50 is the concentration at which inhibition is half-maximal. The half-life is the time in which the quantity being followed falls by half. A higher half-life goes with slow decline. By Ki is commonly meant a dissociation constant, usually derived from enzyme kinetics or from competition with a known ligand.

Take `S=C(Cc1ccc2c3c([nH]c2c1)CCCC3)N1CCOCC1`: the IC50 in data set [1] amounted to 1470 nM.
Still for that read-out and setting: in the case of `CN1C(=O)C(O)(CC(=O)c2cc3c4c(cccc4c2)CC3)c2ccccc21` (stereo not drawn) it was 2040 nM.
In data set [2], `CC1(C)CCC2=C(O1)c1ccccc1C(=O)C2=O` [LAPACHONE] gave a half-life of 24 min.
For `COC1=CC(=O)c2c(c(COc3ccc([N+](=O)[O-])cc3)c(C)n2C)C1=O`, in data set [3], the Kinact worked out at 0.78 min⁻¹. Moreover, the inhibition constant (Ki) in data set [4] stood at 450 nM. Further, in data set [5], the Ratio was determined as 1.4.
For `CC1=C(N2CC2)C(=O)C(CO)=C(N2CC2)C1=O`, the MTD in the data set on Homo sapiens is reported as 1430 ug/m2/day.
Consider `O=c1oc2ccccc2c(O)c1Cc1c(O)c2ccccc2oc1=O` [DICUMAROL], for which, in data set [6], the Ki fell in the range of 1 to 10 nM.
